Source: patent US20050208582A1, “Pyrazole compounds and pharmaceutical compositions comprising the compound” (priority 2002, published 2005)
Where two headings read alike, the source gives them in different places.

How the values were obtained:
Human JNK 3 = target: T1, Human JNK 3 (Homo sapiens, UniProt P53779); assay: Measurement of JNK 3 inhibition (GST-JNK3, GST-c-Jun substrate, [γ-33P]ATP, SPA beads); format: biochemical
T1 construct: made in house; host or cells: Escherichia coli
Procedure: Measurement of JNK 3 Inhibition
Human JNK 3 was expressed as a fusion protein (GST-JNK 3) with glutathione S-transferase (GST) in Escherichia coli and was purified using glutathione Sepharose 4B beads. The amino acid sequence 1-169 of c-Jun was prepared as a fusion protein (GST-c-Jun) with GST in Escherichia coli, was purified using glutathione Sepharose 4B beads and was used as a substrate. A test compound was solved in 100% dimethyl sulfoxide into 10 mM and was then further diluted with 10% aqueous dimethyl sulfoxide solution to yield a dilution series. In 96-well OPTI plate (available from ParkinElmer Life Sciences), 20 μl of diluted compound, 30 μl of substrate solution (1.2 μg GST-c-Jun, 0.2 μCi [γ-^33P]ATP, 25 mM HEPES pH=7.5, 10 mM MgAcetate, 3.33 μM ATP) and 50 μl of enzyme solution (0.04 μg GST-JNK3, 25 mM HEPES pH=7.5, 10 mM Mg Acetate) were mixed per 1-well, made up to 100 μl, and allowed to react for 30 minutes. After terminating the reaction by adding 100 μl of a reaction terminator (80 mM ATP, 50 mg/ml glutathione SPA beads (available from Amersham Pharmacia Biotech)), the reaction mixture was shaken for 30 minutes. The mixture was centrifuged at room temperature at 1000×g for 5 minutes, and the emission intensity thereof was determined on a TopCount™ illuminator (available from available from PerkinElmer Life Sciences). The activity is expressed by the 50% inhibitory concentration on the enzymatic activity of JNK, i.e., IC50 (nM).

ERK2 = target: T2, ERK2 (Homo sapiens, UniProt P28482); assay: Measurement of ERK2 inhibition (ELISA, myelin basic protein substrate); format: biochemical; conditions: concentration at which ERK2 enzyme activity was inhibited to 50%; room temperature, 30 minutes; read-out: ERK2 inhibitory activity
T2 construct: purchased Upstate Biotech
Procedure: Measurement of ERK2 Inhibition
A plate for ELISA was coated for 1 hour with 1 μg/well myelin basic protein (available from Upstate Biotech) serving as a reaction substrate. Following washing operation with PBS-Tween, blocking with 1% BSA-PBS was conducted for 3 hours. After washing with PBS-Tween, 25 μl of a reaction solution (20 mM MOPS, 25 mM β-glycerphosphoric acid, 5 mM EGTA, 1 mM orthovanadic acid, 1 mM dithiothreitol), 5 μl of a dilution sample of compound from dilution series which was prepared using 1% DMSO-1% BSA solution, 10 μl of 0.5 μg/ml ERK2 (available from Upstate Bioech), 10 μl of 500 μM ATP were added to made up to 50 μl, and allowed to react at room temperature for 30 minutes. 100 μl of 200 mM EDTA (pH 8.0) was added to stop the reaction, which was then washed with PBS-Tween. This was then added with mouse anti-phospho-myelin basic protein antibody (available from Usptate Biotech), allowed to react for 1 hour, and washed with PBS-Tween, thereafter added with anti-mouse IgG antibody combined with horseradish peroxidase (available from ICN), allowed to react for 1 hour, and washed with PBS-Tween. Subsequently 100 μl of a TMB peroxidase substrate solution (available from KPL) was added, coloring reaction was allowed for 10 minutes, and then measurement at OD 450 nm was conducted. […]

[1] = 50% inhibitory concentration on the enzymatic activity of JNK, 3.33 μM ATP in substrate solution, 30 minutes
[2] = selectivity table, compared with ERK2, read-out: JNK3 inhibitory activity

T1 sequence (P53779 whole entry): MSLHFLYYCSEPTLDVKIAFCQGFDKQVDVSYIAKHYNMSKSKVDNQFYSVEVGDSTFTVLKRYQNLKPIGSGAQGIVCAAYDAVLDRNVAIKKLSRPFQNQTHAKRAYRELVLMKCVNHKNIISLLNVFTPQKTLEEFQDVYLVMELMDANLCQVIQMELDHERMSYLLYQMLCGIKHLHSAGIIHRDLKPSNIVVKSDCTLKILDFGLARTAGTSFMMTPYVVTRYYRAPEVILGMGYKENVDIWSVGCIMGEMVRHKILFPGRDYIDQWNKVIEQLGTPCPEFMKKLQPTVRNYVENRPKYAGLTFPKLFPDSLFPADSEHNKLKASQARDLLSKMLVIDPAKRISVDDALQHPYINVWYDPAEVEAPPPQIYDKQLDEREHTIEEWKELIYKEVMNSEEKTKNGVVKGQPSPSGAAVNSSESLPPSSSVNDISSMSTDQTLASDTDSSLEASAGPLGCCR
T2 sequence (P28482 whole entry, species assumed): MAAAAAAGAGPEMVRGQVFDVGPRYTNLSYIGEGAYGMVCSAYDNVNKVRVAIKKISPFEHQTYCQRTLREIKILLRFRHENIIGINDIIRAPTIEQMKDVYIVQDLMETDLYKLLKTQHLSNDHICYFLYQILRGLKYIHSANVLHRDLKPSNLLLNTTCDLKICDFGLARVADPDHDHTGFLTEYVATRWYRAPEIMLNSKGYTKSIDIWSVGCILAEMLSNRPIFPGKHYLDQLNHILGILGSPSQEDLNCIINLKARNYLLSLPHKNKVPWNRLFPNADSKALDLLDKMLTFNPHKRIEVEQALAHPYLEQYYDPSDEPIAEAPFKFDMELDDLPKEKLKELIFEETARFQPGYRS

Structure (SMILES) | IC50 (Human JNK 3; [1]) | IC50 (ERK2) | IC50 (Human JNK 3; [2])
O=C(NC1CC1)c1ccc2[nH]nc(-c3cccc(F)c3)c2n1 [Example 56, 3-(3-Fluorophenyl)-1H-pyrazolo[4,3-b]pyridine-5-carboxylic Acid Cyclopropylamide] | 0.234 µM | – | –
O=C(NCc1ccco1)c1cc2c(/C=C/c3cccc(F)c3)n[nH]c2cc1F [Example 103, 6-Fluoro-3-[(E)-2-(3-fluorophenyl)-vinyl]-1H-indazole-5-carboxylic Acid (furan-2-ylmethyl)-amide] | – | 22.1 µM | 0.055 µM
O=C(NCc1cccnc1)c1cc2c(/C=C/c3cccc(F)c3)n[nH]c2cc1F [Example 106, 6-Fluoro-3-[(E)-2-(3-fluorophenyl)-vinyl]-1H-indazole-5-carboxylic Acid (pyridine-3-ylmethyl)-amide] | 0.195 µM | – | –
O=C(NCc1ccco1)c1ccc2[nH]nc(/C=C/c3cccs3)c2c1F [Example 213, 4-Fluoro-3-[(E)-2-(thiophen-2-yl)-vinyl]-1H-indazole-5-carboxylic Acid (furan-2-ylmethyl)-amide] | 0.117 µM | – | –
O=C(NC1CC1)c1ccc2[nH]nc(/C=C/c3ccc(F)cc3)c2c1OCCO [Example 353, 3-[(E)-2-(4-Fluorophenyl)-vinyl]-4-(2-hydroxyethoxy)-1H-indazole-5-carboxylic Acid Cyclopropylamide] | 0.148 µM | – | –
COc1c(-c2nc(C)n[nH]2)ccc2[nH]nc(/C=C/c3cccc(F)c3)c12 [Example 392, 3-[(E)-2-(3-Fluorophenyl)-vinyl]-4-methoxy-5-(5-methyl-2H-[1,2,4]triazol-3-yl)-1H-indazole] | 0.403 µM | – | –
O=C(Nc1ccc2[nH]nc(/C=C/c3ccc(F)cc3)c2n1)c1ccco1 [Example 495, Furan-2-carboxylic Acid {3-[(E)-2-(4-fluorophenyl)-vinyl]-1H-pyrazolo[4,3-b]pyridin-5-yl}-amide] | 0.118 µM | – | –
O=C(NC(CO)c1ccccc1)c1cc2c(-c3ccc4ccccc4c3)n[nH]c2s1 (centres unmarked) [Example 522, 3-(Naphthalen-2-yl)-1H-thieno[2,3-c]pyrazol-5-carboxylic Acid (2-hydroxy-1-phenylethyl)amide] | 0.146 µM | – | –
CNCc1nnc(-c2cc3c(/C=C/c4ccc(F)cc4)n[nH]c3cc2F)[nH]1 [Example 571, (5-{6-Fluoro-3-[(E)-2-(4-fluorophenyl)-vinyl]-1H-indazol-5-yl}-4H-[1,2,4]triazol-3-ylmethyl)-methyl-amine] | 0.063 µM | – | –
C[C@H](NC(=O)c1ccc2[nH]nc(/C=C/c3ccc(F)cc3)c2c1OCCCO)C(N)=O [Example 786, 3-[(E)-2-(4-Fluorophenyl)-vinyl]-4-(3-hydroxypropoxy)-1H-indazole-5-carboxylic Acid [(1S)-1-carbamoyl-ethyl]-amide] | 0.175 µM | – | –
NC(=O)CCOc1c(C(=O)N[C@H](CO)c2ccccc2)ccc2[nH]nc(/C=C/c3ccc(F)cc3)c12 [Example 790, 4-(2-Carbamoylethoxy)-3-[(E)-2-(4-fluorophenyl)-vinyl]-1H-indazole-5-carboxylic Acid [(1S)-2-hydroxy-1-phenyl-ethyl]-amide] | 0.07 µM | – | –
COc1c(C(=O)NCc2ncco2)ccc2[nH]nc(/C=C/c3ccc(F)cc3F)c12 [Example 992, 3-[(E)-2-(2,4-Difluorophenyl)-vinyl]-4-methoxy-1H-indazole-5-carboxylic Acid (oxazol-2-ylmethyl)amide] | 0.107 µM | – | –
CCCNC(=O)Nc1cc2c(/C=C/c3ccc(F)cc3)n[nH]c2cc1F [Example 1056, 1-{6-Fluoro-3-[(E)-2-(4-fluorophenyl)-vinyl]-1H-indazol-5-yl}-3-propyl-urea] | 0.132 µM | – | –

The next lines start with the values.

IC50 (Human JNK 3; [1]) | IC50 (ERK2) | IC50 (Human JNK 3; [2]) | Structure (SMILES)
0.117 µM | – | – | CC(C)[C@@H](CO)NC(=O)c1cc(F)c2[nH]nc(/C=C/c3cccnc3)c2c1 [Example 128, 7-Fluoro-3-[(E)-2-(pyridin-3-yl)-vinyl]-1H-indazole-5-carboxylic acid [(1S)-1-hydroxymethyl-2-methylpropyl]-amide]
0.167 µM | – | – | O=C(Nc1cc(F)c2[nH]nc(/C=C/c3cccnc3)c2c1)c1ccco1 [Example 136, Furan-2-carboxylic Acid [7-fluoro-3-(2-pyridin-3-yl-vinyl)-1H-indazol-5-yl]-amide]
0.578 µM | – | – | O=C(NCc1ccco1)c1cc2c(/C=C/c3cccc(F)c3)n[nH]c2cn1 [Example 466]
0.505 µM | – | – | O=C(NCc1ccco1)c1cnc2[nH]nc(-c3ccc4ccccc4c3)c2c1 [Example 472, 3-(Naphthalen-2-yl)-1H-pyrazolo[3,4-b]pyridine-5-carboxylic Acid (furan-2-ylmethyl)-amide]
0.066 µM | – | – | NCc1nnc(-c2cc(F)c3[nH]nc(/C=C/c4ccc(F)cc4)c3c2)[nH]1 [Example 573, C-(5-{7-Fluoro-3-[(E)-2-(4-fluorophenyl)-vinyl]-1H-indazol-5-yl}-4H-[1,2,4]triazol-3-yl)-methylamine]
0.117 µM | – | – | Fc1ccc(/C=C/c2n[nH]c3c(F)cc(-c4ncc[nH]4)cc23)cc1 [Example 603, 7-Fluoro-3-[(E)-2-(4-fluorophenyl)-vinyl]-5-(1H-imidazol-2-yl)-1H-indazole]
0.122 µM | – | – | COc1cc(/C=C/c2n[nH]c3cc(F)c(NC(=O)CC4CC4)cc23)ccc1F [Example 1003, 2-Cyclopropyl-N-{6-fluoro-3-[(E)-2-(4-fluoro-3-methoxyphenyl)-vinyl]-1H-indazol-5-yl}acetamide]
– | 0.71 µM | 0.092 µM | O=C(NCc1ccco1)c1ccc2[nH]nc(/C=C/c3cccc(F)c3)c2c1 [Reference example 1, 3-[(E)-2-(3-fluorophenyl)-vinyl]-1H-indazole-5-carboxylic acid (furan-2-ylmethyl)-amide, reference compound]
